Measurements: patent publication US9320773B2, “Compounds and therapeutic applications related to inhibition of dendritic cell immunoreceptor (DCIR) activity and signaling events” (priority 2010, dated 2016)
Non-standard residues stand in square brackets, D forms with d. Residues, ends and D or L forms follow the SMILES beside them. *: point of attachment. pY = N[C@@H](Cc1ccc(OP(=O)(O)O)cc1)C(=O)O; pT = C[C@@H](OP(=O)(O)O)[C@H](N)C(=O)O; Cbz = O=C(OCc1ccccc1)*; CH2F = FC*

Assays:
[1] = tested on: HIV-1 NL4-3 in Raji-CD4-DCIR cells; experiment: HIV-1 binding/entry assay in Raji-CD4-DCIR cells (cell-associated p24 ELISA); assay type: cell-based; conditions: for HIV-1 binding/entry: cells pretreated with inhibitor 10 min, pulsed with NL4-3 60 min, result in words; for Binding/entry: Table 3, pharmacological inhibitors, symbols not defined
Method: FIG. 2A: Raji-CD4 and Raji-CD4-DCIR cells were either left untreated or treated with SSG (100 μg/ml) for 10 min at 37° C. Thereafter, cells were pulsed with NL4-3 for 60 min. After three washes with PBS to remove non-adsorbed virus, cell-associated virus was quantified by measuring the p24 content. Data shown correspond to the means±SD of triplicate samples from three combined independent experiments. The asterisk denotes statistically significant data (*, P<0.05; **, P<0.01). FIG. 2B: Cells were either left untransfected or transfected with a sense or antisense oligonucleotide specific for the signalling protein of interest. Next, cells were pulsed with NL4-3 for 60 min. After three washes with PBS to eliminate unbound virus, cell-associated virus was quantified by measuring the p24 content. Data shown correspond to the means±SD of triplicate samples from three combined independent experiments. The asterisk denotes statistically significant data (*, P<0.05; **, P<0.01). After gene silencing, the diminution of the targeted protein was verified by western blots, provided as an insert for each graph.
Where indicated, parental Raji-CD4 cells (DCIR-negative) or Raji-CD4-DCIR transfectants (1×10^6) were pretreated with the indicated amount of a pharmacological inhibitor for 10 min or transfected with sense or antisense oligonucleotides as described below. Cells were then pulsed with NL4-3 (100 ng of p24) for 60 min at 37° C. Next the virus-cell mixture was washed 3 times with PBS to remove unbound virus and resuspended in PBS containing 1% BSA. To assess binding/entry, the p24 content was determined by our in-house ELISA assay^33.
Raji-CD4 and Raji-CD4-DCIR cells (1×10^6 cells) were washed with OptiMEM (Invitrogen Life Technologies) without serum and antibiotics. The phosphorothioate oligodeoxynucleotides (Listed in Table 1) (Invitrogen Life Technologies) were transfected at a final concentration of 10 μM/well^35 using Oligofectamine according to the manufacturer's instructions (Invitrogen Life Technologies). Silencing efficiency was monitored by western blot analysis.

[2] = tested on: HIV-1 NL4-3 in Raji-CD4-DCIR cells; experiment: HIV-1 infection assay in Raji-CD4-DCIR cells, real-time PCR of spliced Tat mRNA; assay type: cell-based; conditions: Table 3, pharmacological inhibitors; symbols not defined
Method: FIG. 6A: Raji-CD4 and Raji-CD4-DCIR were either left untreated or preincubated with tyrosine phosphatase inhibitor SSG (100 μg/ml); Syk inhibitor piceatannol (10 μM); Src inhibitor PP2 (10 μM); classical PKC inhibitor Gö6976 (1 μM); MAPK p38 inhibitor SB203580 (2 μM), MAP kinase inhibitor PD98059 ([…]) for 10 min. FIG. 6B: Raji-CD4 and Raji-CD4-DCIR were treated with Oligofectamine and then either left untreated or exposed to a sense or an antisense oligonucleotide against different signalling proteins during 5 hours. Next, cells were exposed to NL4-3 for 24 hours. Virus infection was determined by real-time PCR of spliced Tat mRNA. Data shown correspond to the means±SD of triplicate samples from three independent experiments. The asterisk denotes statistically significant data (*, P<0.05; ***, P<0.001).
For the infection assay performed before measuring Tat mRNA, Raji-CD4 and Raji-CD4-DCIR cells were treated with the indicated inhibitor or transfected with the indicated oligonucleotide (as described below). Cells were then pulsed with NL4-3 during 24 hours. […] The expression level of Tat mRNA was measured by real-time PCR, as described below.
Expression levels of TAT splice transcripts were determined using a Rotor-Gene™ system (Corbett Life Science). […] After elution, the amount and quality of RNA was assessed by measuring the absorbance at 260 and 280 nm. […]

[3] = tested on: DCIR expression in CD4+ T cells; experiment: DCIR expression in CD4+ T cells after H2O2 or other apoptosis inducers (flow cytometry); assay type: cell-based, human
Method: Next, DCIR expression was assessed by flow cytometry. Data shown represent the ratio of DCIR expression over basal expression. The ratio is calculated from the means±SD of triplicate samples from three independent experiments. […] FIG. 16A: […] Expression of DCIR is shown as a dotted line, whereas the continuous line represents staining obtained with an isotype-matched irrelevant control Ab. Data shown correspond to a single experiment representative of 3 independent experiments. FIG. 16B: […] Thereafter, DCIR surface expression and caspase activation were monitored by flow cytometric analysis using a double-staining method consisting of FITC-VAD-FMK followed by the R-PE-conjugated anti-DCIR. Data shown correspond to a single experiment representative of 4 independent experiments. Cell surface expression of DCIR was monitored by flow cytometric analysis (Epics ELITE ESP, Coulter Electronics, Burlington, Canada). […] After washing, the cells were incubated with PE-labeled anti-DCIR (0.25 μg) for 45 min at 4° C. and then washed twice with PBS and 0.5% BSA. Non-specific staining was determined by using an isotype-matched irrelevant control antibody. After two final washes with PBS, cells were fixed in 2% paraformaldehyde for 30 min and analyzed.

CD4+ T cells = experiment: Cell toxicity / viability of CD4+ T cells; assay type: cell-based, human; conditions: HIV-1-infected CD4+ T cells; data not shown
[4] = tested on: DCIR expression in CD4+ T cells; experiment: HIV-1-mediated induction of DCIR expression in CD4+ T cells (flow cytometry); assay type: cell-based, human; conditions: for HIV-1-mediated DCIR expression: cells pre-treated before virus infection, 3 days, result in words
Method: Mitogen-activated CD4^+ T cells (1×10^6) were first either left untreated or treated for 1 h with the caspase inhibitor Z-VAD-FMK (50 nM), after which HIV-1 was added (100 ng of p24), where indicated. DCIR expression was monitored 3 days later by flow cytometry. Data shown represent the means±SD of triplicate samples from three independent experiments.
Cells (1×10^6) were first either left untreated or treated for 1 h with NAC, after which HIV-1 (100 ng of p24) was added. DCIR expression was monitored 3 days later by flow cytometry. Expression of DCIR is shown as a dotted line, whereas the continuous line represents staining obtained with an isotype-matched irrelevant control Ab. Data shown correspond to a single experiment representative of 3 independent experiments.
Cell surface expression of DCIR was monitored by flow cytometric analysis (Epics ELITE ESP, Coulter Electronics, Burlington, Canada). Cells (1×10^6 cells) were incubated for 30 min with a pool of human serum to block the unspecific binding. After washing, the cells were incubated with PE-labeled anti-DCIR (0.25 μg) for 45 min at 4° C. and then washed twice with PBS and 0.5% BSA. Non-specific staining was determined by using an isotype-matched irrelevant control antibody. After two final washes with PBS, cells were fixed in 2% paraformaldehyde for 30 min and analyzed.

[5] = tested on: HIV-1 NL4-3balenv in IM-MDDCs; experiment: HIV-1 infection of IM-MDDCs transfected with ITIM peptides (p24 in supernatants); assay type: cell-based; conditions: peptides inserted with Pro-Ject, NL4-3balenv 2 hours, culture up to 9 days; result in words
Method: (§1) FIG. 7A: Raji-CD4 cells were transduced with a retroviral vector expressing either a wild-type form of DCIR, a T6F mutant of DCIR, or a Y7F mutant of DCIR. Surface expression level of DCIR was assessed by flow cytometry using a combination of PE-labelled anti-DCIR antibody (dotted lines) and a control isotype-matched antibody (continuous lines). […] FIG. 7B: For the virus binding/entry assay shown in the left panel, the indicated cell lines were exposed to NL4-3. For the infection assay shown in the right panel, the same cells were exposed to NL4-3 for 2 hours at 37° C., and then maintained in culture for 9 days. FIG. 7C: IM-MDDCs were treated with Pro-Ject only, with a control peptide or an ITIM peptide, either not phosphorylated or phosphorylated on the tyrosine or threonine residue, during 5 min at 37° C. Next, cells were pulsed with NL4-3balenv for 60 min at 37° C. and washed extensively before measuring the p24 content (left panel). […] Cell-free culture supernatants were quantified by measuring the p24 content. […]
(§2) For assessing binding/entry, IM-MDDCs (3×10^5 cells in a final volume of 300 μl) transfected with one of the ITIM peptides were exposed to NL4-3balenv (30 ng of p24) for 60 min at 37° C. […] The p24 content was determined by ELISA. As for susceptibility of IM-MDDCs to HIV-1 infection, it was assessed by initially exposing 3×10^5 cells to NL4-3balenv (30 ng) for 2 hours at 37° C. […]

[6] = tested on: HIV-1 NL4-3balenv in IM-MDDCs; experiment: HIV-1 binding/entry in IM-MDDCs transfected with ITIM peptides (p24); assay type: cell-based; conditions: peptides inserted with Pro-Ject, NL4-3balenv 60 min; result in words
Method: as §1, §2

In the case of `CC(C)(C)n1nc(-c2ccc(Cl)cc2)c2c(N)ncnc21` [PP2], the HIV-1 binding/entry [1] is reported as “decreased”.

With `C/C(O)=C(\C#N)C(=O)Nc1cc(Br)ccc1Br` [LFM-A13] the Binding/entry [1] was “Ø”, the HIV-1 binding/entry [1] was “not involved” and the Infection [2] was “Ø”.

For `Cn1c2ccccc2c2c3c(c4c5ccccc5n(CCC#N)c4c21)CNC3=O` [Go6976], the HIV-1 binding/entry [1] was “play a role”.

In the case of `O=S(=O)(NCCNC/C=C/c1ccc(Br)cc1)c1cccc2cnccc12` [H89], the Binding/entry [1] is reported as “Ø”, the HIV-1 binding/entry [1] is reported as “not participating” and the Infection [2] is reported as “Ø”.

With `COC(=O)CC(NC(=O)C(C)NC(=O)C(NC(=O)OCc1ccccc1)C(C)C)C(=O)CF` (stereo not drawn) [Z-VAD-FMK, Benzyloxycarbonyl-Val-Ala-Asp (OMe) fluoromethylketone] (Cbz-Val-Ala-Asp(OMe)-CH2F; configuration not given here) the “DCIR expression in activated CD4+ T cells” value ([3]; cells treated with both H2O2 (30 μM) and Z-VAD-FMK (50 nM, 1 h pretreatment), n=3) was 1.0±0.2%, the “DCIR expression after H2O2 stimulation” value ([3]; pretreatment with Z-VAD-FMK, result in words) was “prevented” and the cell toxicity (CD4+ T cells) was “no toxicity”. The “HIV-1-mediated DCIR expression” value [4] was “partially reduced”.

In the case of `CN[C@@H]1C[C@H]2O[C@@](C)([C@@H]1OC)n1c3ccccc3c3c4c(c5c6ccccc6n2c5c31)C(=O)NC4` [staurosporine], the DCIR expression ([3]; CD4+ T cells treated with inducer, H2O2 20 to 60 μM, result in words) is reported as “promoted”.

In the case of `COc1cccc(-c2cc(=O)c3ccccc3o2)c1N` [PD98059], the HIV-1 binding/entry [1] is reported as “significant decrease”.

`CC(=O)N[C@@H](CS)C(=O)O` [NAC, N-acetyl-L-cystein] was tested, and the cell toxicity (CD4+ T cells) was “no toxicity”, the “HIV-1-mediated DCIR expression” value [4] was “inhibited but not completely” and the “HIV-1-induced expression of DCIR on the surface of CD4+ T cells” value ([4]; virus-infected cells also treated with NAC, n=3, 16.2±3.4% in HIV-1-infected cells without NAC) was 6.7±1.7%.

For “TAMRA-EITY(PO3H2)AEVRFKNES-OH ({TAMRA}-EIT[pY]AEVRFKNES-OH) [ITIM peptide phosphorylated on tyrosine]”, the “virus replication / infection” value [5] was “decrease” and the virus binding/entry [6] was “decrease”.

For “TAMRA-EIT(PO3H2)YAEVRFKNEFKS-OH ({TAMRA}-EI[pT]YAEVRFKNEFKS-OH) [ITIM peptide phosphorylated on threonine]”, the “virus replication / infection” value [5] was “decrease” and the virus binding/entry [6] was “decrease”.

For `Oc1cc(O)cc(/C=C/c2ccc(O)c(O)c2)c1` [Pic, piceatannol], the HIV-1 binding/entry [1] was “significantly decreases”.

`C[S+]([O-])c1ccc(-c2nc(-c3ccncc3)c(-c3ccc(F)cc3)[nH]2)cc1` (stereo not drawn) [SB203580] was tested, and the HIV-1 binding/entry [1] was “significant decrease”.

`C(=C\c1ccccc1)/c1ccccc1` [trans-stilbene] was tested, and the HIV-1 binding/entry [1] was “inability of the inactive analog trans-stilbene to induce a comparable decrease”.
